According to patent US7531520B2, “Drug and food or drink for improving pancreatic functions” (Morinaga Milk Industry Co., Ltd., priority 2005, dated 2009):
Like-named read-outs stand apart in the source and are kept apart here.

Assays:
db/db mice [1] = test system: db/db mice
Protocol: This test was performed in order to evaluate the pancreatic endocrine gland cell function (insulin production ability) protecting action of 3-O-β-D-glucopyranosyl-4-methyl-ergost-7-en-3-ol by using db/db mice known as a model animal of pancreatic hypofunction or pancreatic tissue dysfunction.
In this test, 6-week old male db/db mice (purchased from Clea Japan, Inc.) were used. These mice were divided into groups, each consisting of 7 animals. Each test sample was dissolved in DMSO, and the concentration was adjusted to 0.1 or 1 μg/mL with physiological saline. The final DMSO concentration was adjusted to 0.2%. The model mice were orally administered with 1 mL of the test sample once a day everyday for 42 days with a sonde. The serum insulin level was measured on the 43rd day of the continuous administration by using Lbis insulin mouse ELISA kit (Shibayagi Co., Ltd).

db/db mice [2] = experiment: Pancreatic tissue protecting action, Langerhans islets in pancreatic sections (Test Example 2); type: in vivo
Protocol: The final DMSO concentration was adjusted to 0.2%. […] On the 43rd day of the continuous administration, the pancreas was extracted, divided into three portions of upstream, midstream and downstream from the duodenum side, and fixed with a formalin solution, and then paraffin blocks were prepared in a conventional manner. Section slides were prepared from the paraffin blocks, and subjected to hematoxylin-eosin staining. The numbers of Langerhans islets existing on the sections of the 3 position of the pancreas, and area of Langerhans islet having the maximum area on each section were measured by using an ocular micrometer on a microscope (“ECLIPSE E600”, NIKON CORP.).

db/db mice [3] = experiment: Hyperglycemia improving effect in type-II diabetes model mice (Reference Example 1); type: in vivo; conditions: male db/db mice, oral 1 mL of 15 μg/mL once a day
Protocol: The final DMSO concentration was adjusted to 0.2%. […] Fasting blood glucose levels and random blood glucose levels were measured over time using Antisense II (Bayer-Sankyo Co., Ltd.). The fasting blood glucose levels were measured after 15 hours of fasting.
Changes over time in random blood glucose levels and fasting blood glucose levels during the test sample administration period are shown in FIGS. 3 and 4.

[4] = oral 1 μg once a day for 42 days, pancreatic sections

CC1C(O[C@@H]2O[C@H](CO)[C@@H](O)[C@H](O)[C@H]2O)CC[C@@]2(C)C1CC=C1[C@@H]3CC[C@H]([C@H](C)CC[C@H](C)C(C)C)[C@@]3(C)CC[C@@H]12 (stereo partly drawn) [Test sample, 3-O-β-D-glucopyranosyl-4-methyl-ergost-7-en-3-ol]
Effect on serum insulin level (pancreatic function protecting effect) (db/db mice [1]; 0.1 μg/animal, 43rd day): any significant effect was not observed | Serum insulin level relative to that observed in the negative test (db/db mice [1]; 1 μg/animal, 43rd day): 216% | Serum insulin levels on 43rd day of administration (db/db mice [1]; oral 0.1 μg/animal once a day for 42 days): 2.24 ± 0.66 ng/mL | Serum insulin levels on 43rd day of administration (db/db mice [1]; oral 1 μg/animal once a day for 42 days): 4.29 ± 0.71 ng/mL | Maximum areas of Langerhans islets relative to that observed in the negative test (db/db mice [2]; 1 μg, 43rd day): 3.6 times | Number of Langerhans islets relative to negative sample-administered mice (db/db mice [2]; 1 μg, 43rd day): 188% | Maximum area of Langerhans islets on 43rd day of administration (db/db mice [2]; [4]): 160.0 ± 116.7 × 10^3 (μm^2) | The numbers of Langerhans islets in sections on 43rd day of administration (db/db mice [2]; [4]): 75.7 ± 24.7 piece | Changes over time in random blood glucose levels (db/db mice [3]; FIG. 3, versus negative sample): effect of suppressing the increases in blood glucose levels was clearly observed | Changes over time in fasting blood glucose levels (db/db mice [3]; after 15 hours of fasting, FIG. 4, versus negative sample): effect of suppressing the increases in blood glucose levels was clearly observed
